Source: patent US11299506B2, “Acylnucleoside phosphonates, prodrugs thereof and use thereof as medicament” (UNIVERSITE DE MONTPELLIER, priority 2017, dated 2022)
Read-outs that look alike come from different tables or passages of the source.

Assays:
[1] = tested on: Plasmodium falciparum (strain 3D7); assay: In vitro anti-Plasmodium falciparum activity (infected erythrocytes, radioactive precursor incorporation); format: cell-based
Description: After 48 h of incubation in the absence (control) or in the presence of the compound to be tested, the radioactive precursor is added, and the reaction is continued for another 18 h, then stopped by freezing at −80° C. The macromolecules, including the radiolabeled nucleic acids, are collected on a filter. The incorporated radioactivity is measured with the scintillation counter after addition of scintillation cocktail. The radioactive background noise is measured based on a suspension of healthy erythrocytes (same conditions as for parasite-containing suspensions). The viability of the parasites is expressed as a (nonspecific derived) percentage of the control. […] The IC50 values thus determined are the result of at least two experiments carried out independently in duplicate. Batches A and B correspond to two different syntheses according to the same procedure and carried out in their totality by two different operators, at a six month interval.

K562 cells = assay: Toxicity with respect to K562 cells ([3H]-thymidine incorporation); format: cell-based, human; conditions: 3H-thymidine detection; Batch B; 24 h incubation; read-out: Activity against the K562 cells, 3H-Thymidine, Batch B IC50
Description: Suspensions of human cells (8000 cells per well) are cultured in complete RPMI medium (RPMI 1640 medium, L-glutamine, penicillin/streptomycin and 10% fetal calf serum) (200 μL) either in the absence of the compound to be tested (controls), or in contact with variable concentrations of said compound.
After 24 h of incubation (or approximately one cell cycle), 0.7 μCi of [^3H]-thymidine (radiolabeled precursor of the synthesis of the nucleic acids) diluted in 30 μL of complete RPMI medium are added to each well. After 6 h of additional incubation, the thymidine incorporation reaction is stopped by freezing at −80° C. As for the determination of the in vitro anti-malarial activity, the macromolecules, including the radiolabeled nucleic acids, are collected on a filter. The incorporated radioactivity is measured with the scintillation counter after addition of scintillation cocktail.
The radioactive background noise is measured based on complete RPMI medium. The viability of the cells is expressed as a (nonspecific derived) percentage of the control. The measurements are analyzed using Excel and Prism software, and the IC50 (concentration capable of in vitro inhibition of 50% of the growth of the cells) is determined graphically.
The IC50 values thus determined are the result of at least two experiments performed independently in duplicate.

Babesia divergens = assay: In vitro anti-Babesia divergens activity (infected erythrocytes, [3H]-hypoxanthine incorporation); format: cell-based; conditions: 16 h contact, read-out: Activity against Babesia divergens IC50
Description: After 16 h of incubation in the absence (control) or in the presence of the compound, the radioactive precursor is added and the reaction is continued for another 8 h and then stopped by freezing at −80° C. As for the determination of the in vitro anti-parasitic activity, the macromolecules, including the radiolabeled nucleic acids, are collected on a filter. The incorporated radioactivity is measured with the scintillation counter after addition of scintillation cocktail. The radioactive background noise is measured based on a suspension of healthy erythrocytes (same conditions as for the parasite-containing suspensions). The viability of the parasites is expressed as a (nonspecific derived) percentage of the control. […] The IC50 values thus determined are the result of at least two experiments performed independently in duplicate.

Toxoplasma gondii = assay: In vitro anti-toxoplasmosis activity by plaque assay on HFF fibroblast monolayer; format: cell-based; conditions: 7 days, average of 2 values
Description: This test is based on the capability of Toxoplasma gondii in its intracellular form (tachyzoite) to bring about the lysis of its host cell (here a monolayer of fibroblasts) and to then infect the neighboring cells so that over time (days) a macroscopically visible hole in the monolayer of cells becomes apparent and its area can be measured. In the 24-well culturing plates, approximately 80 parasites are added to a monolayer of fibroblasts (HFF cells) for 7 days in the presence or absence of drug. The cells are then fixed with 4% paraformaldehyde, and then stained with Giemsa. The cells are visualized under the microscope, and the size of the lysis plaques is measured using the software Zen® (Zeiss). The cells are maintained in culture in complete medium (DMEM+5% fetal calf serum+glutamine+penicillin/streptomycin). The ability of the drug to inhibit the growth of Toxoplasma gondii is proportional to the decrease in the size of the lysis plaque.
The results obtained are collected in Table 4 (average of 2 values) below and in FIG. 1.

[2] = read-out: Activity against P. falciparum (3D7), detection 3H-Hypoxanthine, Batch B IC50
[3] = Plasmodium falciparum, 3D7, Erythrocyte, 3H-ethanolamine detection, Batch A, 48 h contact, read-out: Activity against P. falciparum (3D7), detection 3H-Ethanolamine, Batch A IC50
[4] = Plasmodium falciparum, 3D7, Erythrocyte, 3H-hypoxanthine detection, Batch A, 48 h contact, read-out: Activity against P. falciparum (3D7), detection 3H-Hypoxanthine, Batch A IC50
[5] = read-out: Activity against P. falciparum (3D7), detection 3H-Ethanolamine, Batch A IC50
[6] = read-out: Activity against P. falciparum (3D7), detection 3H-Hypoxanthine, Batch A IC50

| Compound | IC50 [1, 4] [µM] | IC50 (Babesia divergens; Babesia divergens, Erythrocyte) [µM] | IC50 [1, 5] [µM] | IC50 [1, 6] [µM] | other results |
| --- | --- | --- | --- | --- | --- |
| CCN(CC)CCCC(C)Nc1ccnc2cc(Cl)ccc12 (stereo not shown) [Chloroquine, reference compound] |  |  |  |  | IC50 ([1]; Plasmodium falciparum, 3D7, Erythrocyte, read-out: Activity against P. falciparum (3D7), detection 3H-Ethanolamine, Batch A IC50): 0.014 µM; IC50 ([1]; Plasmodium falciparum, 3D7, Erythrocyte, read-out: Activity against P. falciparum (3D7), detection 3H-Hypoxanthine, Batch A IC50): 0.0145 µM |
| COc1nc(N)nc2c1ncn2C[C@@H](O)CCP(=O)(OCCSC(=O)c1ccccc1)OCCSC(=O)c1ccccc1 [Compound 4, 6-O-methyl-9-[(2S)-2-hydroxy-4-bis(S-benzoyl-2-thioethyl)phosphonobutyl]-2-amino Purine] |  |  |  |  | IC50 [1, 2]: 57 µM; IC50 (K562 cells): 22 µM |
| COc1nc(N)nc2c1ncn2C[C@H](O)CCP(=O)(OCCSC(=O)c1ccccc1)OCCSC(=O)c1ccccc1 [Compound 6, 6-O-methyl-9-[(2R)-2-hydroxy-4-bis(S-benzoyl-2-thioethyl)phosphonobutyl]-2-aminopurine] |  |  |  |  | IC50 [1, 2]: 62 µM; IC50 (K562 cells): 20 µM |
| Nc1ncnc2c1ncn2C[C@@H](O)CP(=O)(O)O [Compound 10, N-9-[(2R)-2-hydroxy-3-phosphonopropyl] adenine] | > 1000 |  |  |  | IC50 [1, 3]: > 1000 µM |
| Nc1nc2c(ncn2C[C@@H](O)CP(=O)(O)O)c(=O)[nH]1 [Compound 11, N-9-[(2R)-2-hydroxy-3-phosphonopropyl]guanine] | ≥ 1000 |  |  |  | IC50 [1, 3]: > 1000 µM |
| Nc1ncc2ncn(CC[C@@H](O)CP(=O)(O)O)c2n1 [Compound 16] | 62 | > 100 |  |  |  |
| O=P(O)(O)C[C@H](O)CCn1cnc2cc(Cl)c(Cl)cc21 [Compound 18] | > 100 | 470 |  |  |  |
| O=c1[nH]c(=O)c2ncn(CC[C@@H](O)CP(=O)(O)O)c2[nH]1 [Compound 19] | > 100 | > 100 |  |  |  |
| O=c1[nH]cnc2c1ncn2CC[C@@H](O)CP(=O)(O)O [Compound 20] | > 1000 | > 100 |  |  |  |
| O=c1[nH]cnc2c1ncn2CC[C@H](O)CP(=O)(O)O [Compound 21] | > 1000 | > 100 |  |  |  |
| O=c1[nH]c(=O)c2ncn(CC[C@H](O)CP(=O)(O)O)c2[nH]1 [Compound 22] | 910 | > 1000 |  |  |  |
| N=C(N)c1ccc(OCCCCCOc2ccc(C(=N)N)cc2)cc1 [Pentamidine, reference compound] |  | 0.183 |  |  |  |
| N-9-[(2R)-2-hydroxy-3-phosphonobutyl]guanine [Compound 5] |  |  | 0.043 | 0.058 | Inhibition of the growth of T. gondii (Toxoplasma gondii; Conc = 5 μM): 42 % of the controls; Inhibition of the growth of T. gondii (Toxoplasma gondii; Conc = 50 μM): 100 % of the controls; IC50 (Babesia divergens): 0.48 µM; IC50 [1, 2]: 0.0775 µM; IC50 (K562 cells): 10000 µM |
| N-9-[(2R)-2-hydroxy-3-phosphonopropyl]2,6-diamino purine [Compound 13] |  |  | 740 | 510 |  |
| N-9-[(2S)-2-hydroxy-3-phosphono propyl]guanine [Compound 3] |  |  | 6 | 3.3 | Inhibition of the growth of T. gondii (Toxoplasma gondii; Conc = 5 μM): 0 % of the controls; Inhibition of the growth of T. gondii (Toxoplasma gondii; Conc = 50 μM): 18 % of the controls; IC50 (Babesia divergens): 3.6 µM; IC50 [1, 2]: 7.05 µM; IC50 (K562 cells): > 5000 µM |
| N-9-[(2S)-2-hydroxy-3-phosphono propyl]guanine [Compound 12] |  |  |  |  | IC50 (Babesia divergens): > 1000 µM |
| N-9-[(2S)-2-hydroxy-3-phosphonopropyl]2,6-diamino purine [Compound 14] |  |  | 650 | 595 |  |
| N-9-[(2S)-2-hydroxy-3-phosphonopropyl] adenine [Compound 9] |  |  | > 1000 | > 1000 |  |
| N-9[(2R)-2-hydroxy-4-phosphonobutyl]adenine [Compound 2] |  |  | > 1000 | > 1000 |  |
